According to patent publication US20160257697A1, “THIOPHENE-SUBSTITUTED TETRACYCLIC COMPOUNDS AND METHODS OFUSE THEREOF FOR THE TREATMENT OF VIRAL DISEASES” (priority 2013, published 2016):
Where two headings read alike, the source gives them in different places.

Key:
Assay in all cases: microbe, parasite or virus in culture
Assay type in all cases: cell-based, Hepatitis C virus (HCV)
Conditions in all cases: Replicon Assay A
HCV replicon 2B = test system: HCV replicon 2B
Method in brief: (§1)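 Read-out is replicon RNA per cell by real-time RT-PCR, normalised to cyclophilin mRNA amplified in the same well. Cells were exposed to compound for 3 days at 2000 cells/well in medium with 5% fetal bovine serum and 0.5% DMSO.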

HCV replicon 1A = test system: HCV replicon 1A
Method in brief: as §1

HCV replicon 1AY93H = test system: HCV replicon 1AY93H
Method in brief: as §1

[1] = read-out: 1A Y93H IC50, replicon 1AY93H
[2] = Hepatitis C virus, read-out: 2B IC50 (nM), replicon 2B
[3] = Hepatitis C virus, read-out: 1A Y93H IC50 (nM), replicon 1AY93H
[4] = read-out: 2B IC50, HCV replicon 2B
[5] = read-out: 1A Y93H IC50, HCV replicon 1A Y93H

Compound	IC50 (HCV replicon 2B; read-out: 2B IC50, replicon 2B) [nM]	IC50 (HCV replicon 1A; replicon 1A) [nM]	IC50 (HCV replicon 1AY93H; [1]) [nM]	IC50 (HCV replicon 1A; Hepatitis C virus, replicon 1A) [nM]	IC50 (HCV replicon 1AY93H; [3]) [nM]	further results
COC(=O)N[C@H](C(=O)N1C[C@H](F)C[C@H]1c1ncc(-c2ccc3c(c2)OC(c2ccc(C4CC4)s2)n2c-3cc3cc(-c4cnc([C@@H]5C[C@@H](F)CN5C(=O)[C@@H](NC(=O)OC)C5CCOCC5)[nH]4)ccc32)[nH]1)C1CCOCC1 (mixture of isomers) [Compound 734]	–	–	–	–	–	IC50 (HCV replicon 2B; Hepatitis C virus, read-out: 2B IC50, HCV replicon 2B): 116 nM; IC50 (HCV replicon 1A; Hepatitis C virus, HCV replicon 1A): 0.42 nM; IC50 (HCV replicon 1AY93H; Hepatitis C virus, read-out: 1A Y93H IC50, HCV replicon 1A Y93H): 0.24 nM
COC(=O)NC(C(=O)N1CCC[C@H]1c1ncc(-c2ccc3c(c2)cc2n3C(c3ccc(C(C)C)s3)Oc3cc(-c4cnc([C@@H]5CCCN5C(=O)[C@@H](NC(=O)OC)C(C)C)[nH]4)cc(F)c3-2)[nH]1)C1CCOC(C)(C)C1 (single isomer, unassigned) [Compound 236]	0.24	0.0017	0.18	–	–	–
COC(=O)N[C@H](C(=O)N1CCC[C@H]1c1ncc(-c2ccc3c(c2)OC(c2ccc(C4CC4)s2)n2c-3c(C)c3cc(-c4cnc([C@@H]5CCCN5C(=O)[C@@H](NC(=O)OC)C(C)C)[nH]4)ccc32)[nH]1)C(C)C (single isomer, unassigned) [Compound 22]	1.84	0.002	1.38	–	–	–
CCc1ccc(C2Oc3cc(-c4cnc([C@@H]5CCCN5C(=O)C(NC(=O)OC)C5CCOC(C)(C)C5)[nH]4)cc(F)c3-c3cc4cc(-c5cnc([C@@H]6CCCN6C(=O)[C@@H](NC(=O)OC)C(C)C)[nH]5)ccc4n32)s1 (single isomer, unassigned) [Compound 159]	0.45	0.0025	0.77	–	–	–
COC(=O)N[C@H](C(=O)N1CCC[C@H]1c1ncc(-c2cc(F)c3c(c2)OC(c2ccc(C4CC4)s2)n2c-3cc3cc(-c4cnc([C@@H]5CCCN5C(=O)[C@@H](NC(=O)OC)C5CCOCC5)[nH]4)ccc32)[nH]1)C(C)C (single isomer, unassigned) [Compound 126]	–	–	–	0.0019	0.27	IC50 (HCV replicon 2B; [2]): 0.21 nM
CCc1ccc(C2Oc3cc(-c4cnc([C@@H]5CCCN5C(=O)[C@@H](NC(=O)OC)C(C)C)[nH]4)cc(C)c3-c3cc4cc(-c5cnc([C@@H]6CCCN6C(=O)C(NC(=O)OC)C6C[C@@H](C)O[C@H](C)C6)[nH]5)ccc4n32)s1 (single isomer, unassigned) [Compound 546]	–	–	–	–	–	IC50 (HCV replicon 2B; [4]): 0.0542 nM; IC50 (HCV replicon 1A; HCV replicon 1A): 0.0138 nM; IC50 (HCV replicon 1AY93H; [5]): 0.268 nM
COC(=O)N[C@H](C(=O)N1CCC[C@H]1c1ncc(-c2ccc3c(c2)OC(c2cc(C)c(C)s2)n2c-3cc3cc(-c4cnc([C@@H]5C[C@H]6C[C@H]6N5C(=O)[C@@H](NC(=O)OC)C(C)C)[nH]4)ccc32)[nH]1)C(C)C (single isomer, unassigned) [Compound 502]	–	–	–	–	–	IC50 (HCV replicon 2B; [4]): 0.0575 nM; IC50 (HCV replicon 1A; HCV replicon 1A): 0.0121 nM; IC50 (HCV replicon 1AY93H; [5]): 0.575 nM
CCCc1ccc(C2Oc3cc(-c4cnc([C@@H]5CCCN5C(=O)[C@@H](NC(=O)OC)C(C)C)[nH]4)cc(F)c3-c3cc4cc(-c5cnc([C@@H]6CCCN6C(=O)[C@@H](NC(=O)OC)C(C)C)[nH]5)ccc4n32)s1 (single isomer, unassigned) [Compound 33]	–	–	–	0.0018	0.28	IC50 (HCV replicon 2B; [2]): 1.89 nM
CCc1ccc(C2Oc3cc(-c4cnc([C@@H]5CCCN5C(=O)C(NC(=O)OC)C5CCOC(C)(C)C5)[nH]4)cc(F)c3-c3cc4cc(-c5cnc([C@@H]6CCCN6C(=O)[C@@H](NC(=O)OC)C(C)C)[nH]5)ccc4n32)s1 (single isomer, unassigned) [Compound 164]	0.53	0.0015	0.13	–	–	–
COC(=O)N[C@H](C(=O)N1CCC[C@H]1c1ncc(-c2cc(F)c3c(c2)OC(c2ccc(C(C)C(F)(F)F)s2)n2c-3cc3cc(-c4cnc([C@@H]5CCCN5C(=O)[C@@H](NC(=O)OC)C(C)C)[nH]4)ccc32)[nH]1)C(C)C (single isomer, unassigned) [Compound 132]	6	–	–	0.0032	4.93	–
COC(=O)N[C@H](C(=O)N1CCC[C@H]1c1ncc(-c2cc(F)c3c(c2)OC(c2cc(C)c(C(C)C)s2)n2c-3cc3cc(-c4cnc([C@@H]5CCCN5C(=O)[C@@H](NC(=O)OC)C(C)C)[nH]4)ccc32)[nH]1)C(C)C (mixture of isomers) [Compound 64]	–	–	–	0.004	0.15	IC50 (HCV replicon 2B; [2]): 4.01 nM
COC(=O)N[C@H](C(=O)N1CCC[C@H]1c1ncc(-c2ccc3c(c2)OC(c2ccc(C4CC4)s2)n2c-3c(F)c3cc(-c4cnc([C@@H]5C[C@H]6C[C@H]6N5C(=O)[C@@H](NC(=O)OC)C(C)C)[nH]4)ccc32)[nH]1)C(C)C (single isomer, unassigned) [Compound 612]	–	–	–	–	–	IC50 (HCV replicon 2B; [4]): 2.21 nM; IC50 (HCV replicon 1A; HCV replicon 1A): 0.0016 nM; IC50 (HCV replicon 1AY93H; [5]): 0.469 nM
